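All cell lines were grown in 96-well plates and treated with compound for 48 hours. TGI is the concentration that stops growth completely.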
Columns and labels:
Experiment in all cases: inhibition of tumour cell growth, NCI panel, 48 h
786-0 renal = tested on: 786-0 renal
A498 renal = tested on: A498 renal
A549 NSCLC = tested on: A549 NSCLC
ACHN renal = tested on: ACHN renal
CAKI-1 renal = tested on: CAKI-1 renal
CCRF-CEM leukemia = tested on: CCRF-CEM leukemia
COLO 205 colon = tested on: COLO 205 colon
DLD-1 colon = tested on: DLD-1 colon
DMS 114 small cell lung = tested on: DMS 114 small cell lung
DMS 273 small cell lung = tested on: DMS 273 small cell lung
EKVX NSCLC = tested on: EKVX NSCLC
HCC-2998 colon = tested on: HCC-2998 colon
HCT-116 colon = tested on: HCT-116 colon
HCT-15 colon = tested on: HCT-15 colon
HL-60(TB) leukemia = tested on: HL-60(TB) leukemia
HOP-18 NSCLC = tested on: HOP-18 NSCLC
HOP-62 NSCLC = tested on: HOP-62 NSCLC
HOP-92 NSCLC = tested on: HOP-92 NSCLC
HT29 colon = tested on: HT29 colon
IGROV1 ovarian = tested on: IGROV1 ovarian
K-562 leukemia = tested on: K-562 leukemia
KM12 colon = tested on: KM12 colon
KM20L2 colon = tested on: KM20L2 colon
LOX IMVI melanoma = tested on: LOX IMVI melanoma
LXFL 529 NSCLC = tested on: LXFL 529 NSCLC
M14 melanoma = tested on: M14 melanoma
M19-MEL melanoma = tested on: M19-MEL melanoma
MALME-3M melanoma = tested on: MALME-3M melanoma
MOLT-4 leukemia = tested on: MOLT-4 leukemia
NCI-H226 lung = tested on: NCI-H226 lung
NCI-H23 lung = tested on: NCI-H23 lung
NCI-H460 lung = tested on: NCI-H460 lung
NCI-H522 lung = tested on: NCI-H522 lung
OVCAR-3 ovarian = tested on: OVCAR-3 ovarian
OVCAR-4 ovarian = tested on: OVCAR-4 ovarian
OVCAR-5 ovarian = tested on: OVCAR-5 ovarian
OVCAR-8 ovarian = tested on: OVCAR-8 ovarian
RPMI-8226 leukemia = tested on: RPMI-8226 leukemia
RXF 393 renal = tested on: RXF 393 renal
RXF-631 renal = tested on: RXF-631 renal
SF-268 CNS = tested on: SF-268 CNS
SF-295 CNS = tested on: SF-295 CNS
SF-539 CNS = tested on: SF-539 CNS
SK-MEL-2 melanoma = tested on: SK-MEL-2 melanoma
SK-MEL-28 melanoma = tested on: SK-MEL-28 melanoma
SK-MEL-5 melanoma = tested on: SK-MEL-5 melanoma
SK-OV-3 ovarian = tested on: SK-OV-3 ovarian
SN12C renal = tested on: SN12C renal
SNB-19 CNS = tested on: SNB-19 CNS
SNB-75 CNS = tested on: SNB-75 CNS
SNB-78 CNS = tested on: SNB-78 CNS
SR leukemia = tested on: SR leukemia
SW-620 colon = tested on: SW-620 colon
TK-10 renal = tested on: TK-10 renal
U251 CNS = tested on: U251 CNS
UACC-257 melanoma = tested on: UACC-257 melanoma
UACC-62 melanoma = tested on: UACC-62 melanoma
UO-31 renal = tested on: UO-31 renal
XF 498 CNS = tested on: XF 498 CNS

Measured: TGI

O=C(CCc1nnc2s/c(=C\c3ccc4c(c3)OCO4)c(=O)n12)Nc1cc(Cl)ccc1Cl
> 78.8 µM: HCT-116 colon
> 60.5 µM: SW-620 colon
> 100 µM: 786-0 renal | A498 renal | A549 NSCLC | ACHN renal | CAKI-1 renal | CCRF-CEM leukemia | COLO 205 colon | DLD-1 colon | DMS 114 small cell lung | DMS 273 small cell lung | EKVX NSCLC | HCC-2998 colon | HL-60(TB) leukemia | HOP-18 NSCLC | HOP-62 NSCLC | HOP-92 NSCLC | HT29 colon | IGROV1 ovarian | K-562 leukemia | KM12 colon | KM20L2 colon | LOX IMVI melanoma | LXFL 529 NSCLC | M14 melanoma | M19-MEL melanoma | MALME-3M melanoma | MOLT-4 leukemia | NCI-H226 lung | NCI-H23 lung | NCI-H460 lung | NCI-H522 lung | OVCAR-3 ovarian | OVCAR-4 ovarian | OVCAR-5 ovarian | OVCAR-8 ovarian | RPMI-8226 leukemia | RXF 393 renal | RXF-631 renal | SF-268 CNS | SF-295 CNS | SF-539 CNS | SK-MEL-2 melanoma | SK-MEL-28 melanoma | SK-MEL-5 melanoma | SK-OV-3 ovarian | SN12C renal | SNB-19 CNS | SNB-75 CNS | SNB-78 CNS | SR leukemia | TK-10 renal | U251 CNS | UACC-257 melanoma | UACC-62 melanoma | UO-31 renal | XF 498 CNS
> 56.6 µM: HCT-15 colon

COc1ccc(CN2C(=O)C(Cc3cc(OC)c(OC)c(C)c3OC)N(C(=O)OC(C)C)C(=O)/C2=C/c2cc(OC)c(OC)c(C)c2OC)cc1 (centres undefined)
89.8 µM: SR leukemia
> 100 µM: 786-0 renal | A498 renal | A549 NSCLC | ACHN renal | CAKI-1 renal | CCRF-CEM leukemia | COLO 205 colon | DLD-1 colon | DMS 114 small cell lung | DMS 273 small cell lung | EKVX NSCLC | HCC-2998 colon | HCT-116 colon | HL-60(TB) leukemia | HOP-18 NSCLC | HOP-62 NSCLC | HOP-92 NSCLC | HT29 colon | IGROV1 ovarian | K-562 leukemia | KM12 colon | KM20L2 colon | LOX IMVI melanoma | LXFL 529 NSCLC | M14 melanoma | M19-MEL melanoma | MALME-3M melanoma | MOLT-4 leukemia | NCI-H226 lung | NCI-H23 lung | NCI-H460 lung | NCI-H522 lung | OVCAR-3 ovarian | OVCAR-4 ovarian | OVCAR-5 ovarian | OVCAR-8 ovarian | RPMI-8226 leukemia | RXF 393 renal | RXF-631 renal | SF-268 CNS | SF-295 CNS | SF-539 CNS | SK-MEL-2 melanoma | SK-MEL-28 melanoma | SK-MEL-5 melanoma | SK-OV-3 ovarian | SN12C renal | SNB-19 CNS | SNB-75 CNS | SW-620 colon | TK-10 renal | U251 CNS | UACC-257 melanoma | UACC-62 melanoma | UO-31 renal

COC(=O)CSc1ccccc1
46.4 µM: SK-MEL-2 melanoma
30.1 µM: 786-0 renal
99.1 µM: HOP-92 NSCLC
> 100 µM: A498 renal | A549 NSCLC | ACHN renal | CAKI-1 renal | CCRF-CEM leukemia | COLO 205 colon | DLD-1 colon | DMS 273 small cell lung | EKVX NSCLC | HCC-2998 colon | HCT-116 colon | HCT-15 colon | HL-60(TB) leukemia | HOP-18 NSCLC | HOP-62 NSCLC | HT29 colon | IGROV1 ovarian | K-562 leukemia | KM12 colon | KM20L2 colon | LOX IMVI melanoma | LXFL 529 NSCLC | M14 melanoma | M19-MEL melanoma | MOLT-4 leukemia | NCI-H23 lung | NCI-H460 lung | OVCAR-3 ovarian | OVCAR-4 ovarian | OVCAR-5 ovarian | OVCAR-8 ovarian | RPMI-8226 leukemia | RXF 393 renal | RXF-631 renal | SF-268 CNS | SF-295 CNS | SF-539 CNS | SK-MEL-5 melanoma | SK-OV-3 ovarian | SN12C renal | SNB-19 CNS | SNB-75 CNS | SNB-78 CNS | SW-620 colon | TK-10 renal | U251 CNS | UACC-257 melanoma | UACC-62 melanoma | UO-31 renal | XF 498 CNS
59.8 µM: MALME-3M melanoma

Reference: PubChem BioAssay (NCI)
